# In patent publication US9458181B2, “Cathepsin cysteine protease inhibitors” (Merck Sharp & Dohme Corp., priority 2013, dated 2016):
# Columns and labels:
# human cathepsin K = human cathepsin K (UniProt P43236); experiment: Cathepsin K Assay (hrbCat K); type: biochemical; conditions: human cathepsin K 0.4 nM, Z-Leu-Arg-AMC 8 μM, pH 5.5, 15 min preincubation; read-out: hrbCat K IP
# Procedure, shortened: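 Human cathepsin K (0.4 nM) in pH 5.5 MES buffer with EDTA, DTT and 10% DMSO was preincubated 15 min at room temperature with compound from a ⅓ dilution series (500-0.025 μM DMSO stocks). Z-Leu-Arg-AMC (8 μM) was then added, and AMC release was followed fluorometrically (Ex 360/Em 460 nm) for 30 min; inhibition was fitted to a dose-response model.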
# human cathepsin F = target: T1, human cathepsin F (Homo sapiens, UniProt Q9UBX1); experiment: Cathepsin F assay (hCat F); type: biochemical; conditions: human cathepsin F 10 nM, Z-Phe-Arg-AMC 8 μM, pH 5.5, 15 min preincubation; read-out: hCat F IP
# T1 sequence (Q9UBX1 271-484): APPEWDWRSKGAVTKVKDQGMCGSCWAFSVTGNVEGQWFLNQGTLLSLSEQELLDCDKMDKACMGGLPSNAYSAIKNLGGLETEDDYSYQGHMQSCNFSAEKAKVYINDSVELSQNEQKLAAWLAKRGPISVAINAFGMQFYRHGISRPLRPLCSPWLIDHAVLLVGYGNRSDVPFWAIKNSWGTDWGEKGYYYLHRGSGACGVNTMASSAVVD
# Procedure, shortened: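 Fluorogenic read-out: cleavage of Z-Phe-Arg-AMC (8 μM in added buffer) was followed at Ex 360/Em 460 nm for 20 min, with dose-response fitting of percent inhibition. Before substrate addition, 10 nM human enzyme was incubated 15 min at room temperature with compounds (DMSO stocks 500–0.025 μM) in pH 5.5 MES/EDTA/DTT buffer containing 10% DMSO.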
Compound,IC50 (human cathepsin K),IC50 (human cathepsin F)
"CC(C)(c1nc(-c2ccc(N3CCS(=O)(=O)CC3)cc2)c([C@@H]2CCCC[C@H]2C(=O)NC2(C#N)CC2)o1)C(F)(F)F [Example 115, (1R,2R)-N-(1-cyanocyclopropyl)-2-(4-(4-(1,1-dioxidothiomorpholino)phenyl)-2-(1,1,1-trifluoro-2-methylpropan-2-yl)oxazol-5-yl)cyclohexanecarboxamide]",1.34 nM,1770 nM
"N#CC1(NC(=O)[C@@H]2CCCC[C@H]2c2oc(-c3ccccc3OC(F)F)nc2-c2ccc(N3CCS(=O)(=O)CC3)cc2)CC1 [Example 96, (1R,2R)-N-(1-cyanocyclopropyl)-2-(2-(2-(difluoromethoxy)phenyl)-4-(4-(1,1-dioxidothiomorpholino)phenyl)oxazol-5-yl)cyclohexanecarboxamide]",0.87 nM,363 nM
"N#CC1(NC(=O)[C@@H]2CCCC[C@H]2c2oc(-c3cccc(Cl)c3)nc2-c2ccc(N3CCS(=O)(=O)CC3)cc2)CC1 [Example 5, (1R,2R)-2-(2-(3-Chlorophenyl)-4-(4-thiomorpholino-1,1-dioxide-phenyl)oxazol-5-yl)-N-(1-cyanocyclopropyl)cyclohexanecarboxamide]",0.56 nM,507 nM
"N#C[C@@H](NC(=O)[C@@H]1CCCC[C@H]1c1oc(-c2ccc(F)cc2)nc1-c1ccc(N2CCS(=O)(=O)CC2)cc1)C1CCOCC1 [Example 128, (1R,2R)-N-((S)-cyano(tetrahydro-2H-pyran-4-yl)methyl)-2-(4-(4-(1,1-dioxidothiomorpholino)phenyl)-2-(4-fluorophenyl)oxazol-5-yl)cyclohexanecarboxamide]",1.94 nM,692 nM
"N#CC1(NC(=O)[C@@H]2CCCC[C@H]2c2oc(-c3ccc(OC(F)F)cc3)nc2-c2ccc(N3CCS(=O)(=O)CC3)cc2)CC1 [Example 64, (1R,2R)-N-(1-cyanocyclopropyl)-2-(2-(4-(difluoromethoxy)phenyl)-4-(4-(1,1-dioxidothiomorpholino)phenyl)oxazol-5-yl)cyclohexanecarboxamide]",1.04 nM,573 nM
"N#CC1(NC(=O)[C@@H]2CCCC[C@H]2c2oc(C(F)(F)C(F)(F)F)nc2-c2ccc(N3CCS(=O)(=O)CC3)cc2)CC1 [Example 3, (1R,2R)—N-(1-Cyanocyclopropyl)-2-(4-(4-(1,1-dioxidothiomorpholino)phenyl)-2-(perfluoroethyl)oxazol-5-yl)cyclohexanecarboxamide]",1.02 nM,666 nM
"N#CC(CC(F)(F)F)NC(=O)[C@@H]1CC(F)(F)CC[C@H]1c1oc(C(F)(F)C(F)(F)F)nc1-c1ccc(C(=O)N2CCOCC2)cc1 (single isomer, unassigned) [Example 143, (1R,2R)-N-((S or R)-1-cyano-3,3,3-trifluoropropyl)-5,5-difluoro-2-(4-(4-(morpholine-4-carbonyl)phenyl)-2-(perfluoroethyl)oxazol-5-yl)cyclohexanecarboxamide]",0.54 nM,14 nM
"Cc1nc(-c2ccc(C(=O)NC3(C#N)CC3)cc2)c([C@@H]2CCCC[C@H]2C(=O)NC2(C#N)CC2)o1 [Example 21, N-(1-cyanocyclopropyl)-4-(5-((1R,2R)-2-((1-cyanocyclopropyl)carbamoyl)cyclohexyl)-2-methyloxazol-4-yl)benzamide]",61.9 nM,≥ 10000 nM
"CC(C#N)NC(=O)[C@@H]1CCCC[C@H]1c1oc(-c2ccc(F)cc2F)nc1-c1ccc(N2CCS(=O)(=O)CC2)cc1 (single isomer, unassigned) [Example 46, (1R,2R)-N-((S or R)-1-cyanoethyl)-2-(2-(2,4-difluorophenyl)-4-(4-(1,1-dioxidothiomorpholino)phenyl)oxazol-5-yl)cyclohexanecarboxamide]",0.66 nM,230 nM
"N#CC1(NC(=O)[C@@H]2CCCC[C@H]2c2oc(C(F)(F)C(F)(F)F)nc2-c2ccc(C(=O)N3CCOCC3)cc2)CC1 [Example 26, (1R,2R)-N-(1-cyanocyclopropyl)-2-(4-(4-(morpholine-4-carbonyl)phenyl)-2-(perfluoroethyl)oxazol-5-yl)cyclohexanecarboxamide]",3.64 nM,2960 nM
"N#CC1(NC(=O)[C@@H]2CCCC[C@H]2c2oc(-c3cccc(OC(F)F)c3)nc2-c2ccc(N3CCS(=O)(=O)CC3)cc2)CC1 [Example 68, (1R,2R)-N-(1-cyanocyclopropyl)-2-(2-(3-(difluoromethoxy)phenyl)-4-(4-(1,1-dioxidothiomorpholino)phenyl)oxazol-5-yl)cyclohexanecarboxamide]",1.04 nM,502 nM
"Cc1nc(-c2ccc(N3CC(S(C)(=O)=O)C3)cc2)c([C@@H]2CCCC[C@H]2C(=O)NC2(C#N)CC2)s1 [Example 55, (1R,2R)-N-(1-cyanocyclopropyl)-2-(2-mcthyl-4-(4-(3-(methylsulfonyl)azetidin-1-yl)phenyl)thiazol-5-yl)cyclohexanecarboxamide]",4.15 nM,5480 nM
"N#CC1(NC(=O)[C@@H]2CCCC[C@H]2c2oc(-c3ccccc3C3CC3)nc2-c2ccc(N3CCS(=O)(=O)CC3)cc2)CC1 [Example 79, (1R,2R)-N-(1-cyanocyclopropyl)-2-(2-(2-cyclopropylphenyl)-4-(4-(1,1-dioxidothiomorpholino)phenyl)oxazol-5-yl)cyclohexanecarboxamide]",0.51 nM,124 nM
"N#CC1(NC(=O)[C@@H]2CC(F)(F)CC[C@H]2c2oc(-c3ccc(F)cc3)nc2-c2ccc(C(=O)N3CCOCC3)cc2)CC1 [Example 24, (1R,2R)-N-(1-cyanocyclopropyl)-5,5-difluoro-2-(2-(4-fluorophenyl)-4-(4-(morpholine-4-carbonyl)phenyl)oxazol-5-yl)cyclohexanecarboxamide]",0.68 nM,181 nM
"N#CC1(NC(=O)[C@@H]2CCCC[C@H]2c2oc(-c3cccc(C(F)(F)F)n3)nc2-c2ccc(N3CCS(=O)(=O)CC3)cc2)CC1 [Example 100, (1R,2R)-N-(1-cyanocyclopropyl)-2-(4-(4-(1,1-dioxidothiomorpholino)phenyl)-2-(6-(trifluoromethyl)pyridin-2-yl)oxazol-5-yl)cyclohexanecarboxamide]",4.11 nM,2860 nM
"N#CC1(NC(=O)[C@@H]2CCCC[C@H]2c2oc(-c3ccc(F)cc3Cl)nc2-c2ccc(N3CCS(=O)(=O)CC3)cc2)CC1 [Example 37, (1R,2R)-2-(2-(2-chloro-4-fluorophenyl)-4-(4-(1,1-dioxidothiomorpholino)phenyl)oxazol-5-yl)-N-(1-cyanocyclopropyl) cyclohexanecarboxamide]",0.72 nM,353 nM
"Cc1nc(-c2ccc(C(=O)N3CCOCC3)cc2)c([C@@H]2CCCC[C@H]2C(=O)NC2(C#N)CC2)o1 [Example 22, (1R,2R)-N-(1-cyanocyclopropyl)-2-(2-methyl-4-(4-(morpholine-4-carbonyl)phenyl)oxazol-5-yl)cyclohexanecarboxamide]",5.09 nM,6160 nM
"Cc1nccc(-c2nc(-c3ccc(N4CCS(=O)(=O)CC4)cc3)c([C@@H]3CCCC[C@H]3C(=O)NC3(C#N)CC3)o2)n1 [Example 82, (1R,2R)-N-(1-cyanocyclopropyl)-2-(4-(4-(1,1-dioxidothiomorpholino)phenyl)-2-(2-methylpyrimidin-4-yl)oxazol-5-yl)cyclohexanecarboxamide]",2.66 nM,5140 nM
"N#CC1(NC(=O)[C@@H]2CCCC[C@H]2c2oc(C3CC4CCC(C3)C4(F)F)nc2-c2ccc(N3CCS(=O)(=O)CC3)cc2)CC1 (mixture of isomers) [Example 109, (1R,2R)-N-(1-cyanocyclopropyl)-2-(2-((1R,3R,5S and 1R,3S,5S)-8,8-difluorobicyclo[3.2.1]octan-3-yl)-4-(4-(1,1-dioxidothiomorpholino)phenyl)oxazol-5-yl)cyclohexanecarboxamide]",1.7 nM,1500 nM
"N#CC1(NC(=O)[C@@H]2CCCC[C@H]2c2oc(-c3ccc(F)c(F)c3)nc2-c2ccc(N3CCS(=O)(=O)CC3)cc2)CC1 [Example 1, (1R,2R)—N-(1-Cyanocyclopropyl)-2-(2-(3,4-difluorophenyl)-4-(4-(1,1-dioxidothiomorpholino)phenyl)oxazol-5-yl)cyclohexanecarboxamide]",0.39 nM,573 nM
"CC(C#N)NC(=O)[C@@H]1CCCC[C@H]1c1oc(-c2ccc(F)cc2)nc1-c1ccc(N2CCS(=O)(=O)CC2)cc1 (single isomer, unassigned) [Example 121, (1R,2R)-N-((R or S)-1-cyanoethyl)-2-(4-(4-(1,1-dioxidothiomorpholino)phenyl)-2-(4-fluorophenyl)oxazol-5-yl)cyclohexanecarboxamide]",24.1 nM,≥ 10000 nM
"CC1CC1(C#N)NC(=O)[C@@H]1CCCC[C@H]1c1oc(-c2ccc(F)cc2)nc1-c1ccc(N2CCS(=O)(=O)CC2)cc1 (single isomer, unassigned) [Example 133, (1R,2R)-N-((2R or 2S)-1-cyano-2-methylcyclopropyl)-2-(4-(4-(1,1-dioxidothiomorpholino)phenyl)-2-(4-fluorophenyl)oxazol-5-yl)cyclohexanecarboxamide]",2.53 nM,3140 nM
